Measurements published in EP0812857A1, “Irreversible HIV protease inhibitors, compositions containing same and process for the preparation thereof” (LG Chemical Limited, priority 1996, dated 1997).

What was measured:
HIV-1 protease = target: T1, HIV-1 protease (Human immunodeficiency virus type 1 group M subtype B, UniProt P04585); test: Assay for inhibitory effect on HIV protease (irreversible inhibition kinetics, HPLC readout); format: biochemical; conditions: second order rate constant; 2.6nM HIV-1 protease, pH 5.5; KINSIM/FITSIM fit; exact values hard to calculate above 10^9
T1 construct: addition of 2.6nM of HIV-1 protease
Description: The inhibitory effect on HIV protease of the compounds of the present invention was determined by the following method.
To a buffer solution comprising 50mM sodium acetate, pH 5.5, 1mM dithiothreitol (DTT), 1mM ethylenediaminetetra-acetate (EDTA), 0.75M ammonium sulfate, 0.2M sodium chloride and 0.1% NP40(NONIGET P-40; Sigma Chemical Co., U.S.A.), were added various concentrations of a compound selected from the compound obtained in Examples 1 to 9 to prepare a preincubation solution. Inhibition reaction was started with the addition of 2.6nM of HIV-1 protease to the preincubation solution. Each 10µl of the reaction solution was taken at a given time interval and added to 80µl of assay solution containing 100µM of reaction substrate in the same buffer solution as the above to assay for the residual enzyme activity. In this context, an oligopeptide(KM=20µM) consisting of 11 amino acids, i.e., Ser-Ile-Ala-Glu-(p-NO2)-Phe-Leu-Val-Arg-Ala-Lys-His, was used as a reaction substrate, which oligopeptide was to be cleaved in two by the breakage of amide bond between (P-NO2)-Phe and Leu upon the attack of HIV protease. The reaction rate was determined by subjecting the substrate before the reaction and the product after the reaction to HPLC separation and then measuring the relative amount of the product, using the strong absorbance of (p-NO2)-Phe at 280nm. The amounts of reduction in enzyme activity according to the elasped time were measured and the natural logarithmic values(ln) of the measured amounts were plotted against time to obtain a linear graph and kobs was calculated from the slope of the linear graph.
The inhibition constant was calculated according to the following equation: (1)/(kobs)=(1)/(kina)+(KI)/(kina)(1)/([I]) [formula] wherein: kobs is a rate constant indicating the rate of reduction in enzyme activity according to the elapsed time under the presence of a given concentration of inhibitor, kina is a rate constant indicating the rate of chemical reaction forming covalent bond between an enzyme and an inhibitor in Michaelis-Menten complex, KI is an inhibition constant indicating the dissociation rate of Michaelis-Menten complex into an enzyme and an inhibitor, and [I] means the inhibitor concentration.
The above equation is applicable to an experiment carried out under the condition in which the concentration of inhibitor is fear higher than that of enzyme (Steady State Kinetic). […] The inhibition constants KI and kina and second order rate constant kina/KI were obtained by inputting the value of [E]/([E]+[EI]+[EI']) [formula] into KINSIM/FITSIM program.

HIV-1 = test: Anti-viral activity: syncytium formation (Sup T1) or reverse transcriptase assay (H9); format: cell-based; conditions: Human immunodeficiency virus 1; concentration that inhibits the proliferation of HIV by 50%; H9 and Sup T1 cell lines, 200 TCID50 HIV-1; cell line not given; read-out: IC
Description: The anti-viral activity of the compounds of the present invention was determined by measuring the concentration of the compounds that inhibits the proliferation of HIV by 50%(IC50) through a survey for syncytium formation or reverse transcriptase assay.
1 x 10^5 cells of each of H9(ATCC HTB 176) and Sup T1 cell lines were added to the wells of a 24-well microtiter plate and various concentrations of the compounds of the present invention were added thereto. 200 TCID50(200-fold of 50% tissue culture infection dose) of HIV-1 inoculum and rpmi-1640 medium(Sigma Chemical Co., U.S.A) were added successively to the wells and the plate was incubated at 37°C. In case of Sup T1, the number of syncytium formed was investigated after 3 to 9 days. IC50 of each compound was determined by measuring the concentration of inhibitor that can reduce the number of syncytium by 50% compared with those formed in the same condition without the inhibitor.
In case of H9, three-quarters(3/4) of the culture medium in volume was refreshed every 3 days; and after 9 days, 6ml of the culture fluid was taken and 2.5ml of 30% polyethyleneglycol(PEG, M.W. 6000-8000) and 0.4M NaCl were added thereto. The resulting solution was allowed to stand at 0°C overnight to precipitate virus particles. The solution was centrifuged at 2000rpm for 45 minutes, the supernatant was discarded therefrom and the precipitate was diluted with 20µl of a reverse transcriptase suspension buffer(50mM tris-HCl, pH 7.5, 1mM dithiothreitol, 20% glycerol, 0.25M KCl and 0.25% Triton X-100). The resulting suspension was stored in an Effendorf tube at -70°C until used. A procedure of freezing said virus suspension for 2 minutes in dry ice and thawing same at 37°C for 2 minutes was repeated three times and the resulting suspension was centrifuged at 4°C. The resulting supernatant was used in carrying out the reverse transcriptase assay.
10µl of the said viral suspension was added to a solution of: 10µl of buffer solution(250mM tris-HCl, pH 7.5, 37.5mM MgCl2, 0.25% triton X-100), 1.2µl of 200mM dithiothreitol, 5µl of 100µM oligo(dT)-poly(A)(Boeringer Manheim, 12-18 oligomer), 1µl(1µCi) of ^3H-TTP(Thymidinetri-phosphate) and 23.6µl of water; and the resulting mixture was placed at 37°C. After 1 hour, the mixture was poured onto a WHATMAN DEB1 filter and the filter was washed three times with 5ml of 2 x SSC buffer solution(17.53g of sodium chloride, 8.82g of sodium citrate, pH 7.0, 1 liter of water) for about 10 minutes each time and twice with 95% methanol for 10 seconds. The filter was put onto aluminium foil and dried with an infrared lamp. The amount of radioactivity was counted using a liquid scintillation counter.

in vitro = conditions: human, h9 or sup t1 cells
Description: To determine the cytotoxicity of the compounds of the present invention, 0.1µM to 100µM of the novel compounds were added to H9 cell or Sup T1 cell and the mixture was cultured on a rpmi-1640 medium at 37°C. The medium was refreshed every 3 days and the extent of cell proliferation was observed using Hemacytometer according to the trypan blue dye exclusion technique which is well known in the art. CT50(i.e., concentration that causes death of cells by 50%) was determined. As control compounds, azidothymidine(AZT, Burrows-Wellcome Co.) and Ro-31 8959(Hoffmann-La Roche AG) were used. […]

Structure (SMILES) | kinact/KI (HIV-1 protease) | IC50 (HIV-1) | CC50 (in vitro)
CC(C)(C)NS(=O)(=O)CC[C@@H]1O[C@@H]1[C@H](Cc1ccccc1)NC(=O)[C@H](CC(N)=O)NC(=O)c1ccc2ccccc2n1 [Ex. 3] | 1.67e+07 to 1.67e+08 M⁻¹ s⁻¹ | 10 nM | > 10000 nM
CCN(c1ccccc1)S(=O)(=O)CC[C@@H]1O[C@@H]1[C@H](Cc1ccccc1)NC(=O)[C@H](CC(N)=O)NC(=O)c1ccc2ccccc2n1 [Ex. 7, N-ethyl-N-phenyl-5S-[N-(2-quinolinecarbonyl)-L-asparaginyl]amino-(4R,3S)-epoxy-6-phenylhexanesulfonaimide] | 1.67e+07 to 1.67e+08 M⁻¹ s⁻¹ | 20 nM | > 10000 nM
CN(C(C)(C)C)S(=O)(=O)CC[C@@H]1O[C@@H]1[C@H](Cc1ccccc1)NC(=O)[C@@H](NC(=O)COc1cccc2cnccc12)C(C)(C)S(C)(=O)=O [Ex. 5, N-t-butyl-N-methyl-5S-(N-(5-isoquinolyloxymethylcarbonyl)-β-methanesulfonyl-L-valinyl]amino-(4R,3S)-epoxy-6-phenylhexanesulfonamide] | 1.67e+07 to 1.67e+08 M⁻¹ s⁻¹ | 5 nM | > 10000 nM
CC(C)(C)NS(=O)(=O)CC[C@@H]1O[C@@H]1[C@H](Cc1ccccc1)NC(=O)[C@@H](NC(=O)c1ccc2ccccc2n1)C(C)(C)S(C)(=O)=O [Ex. 2, N-t-butyl-5S-[N-(2-quinolinecarbonyl)-β-methanesulfonyl-L-valinyl]amino-(4R,3S)-epoxy-6-phenylhexanesulfonamide] | 1.67e+07 to 1.67e+08 M⁻¹ s⁻¹ | 30 nM | > 10000 nM
Cc1cn([C@H]2C[C@H](N=[N+]=[N-])[C@@H](CO)O2)c(=O)[nH]c1=O [AZT, azidothymidine, reference compound] |  | 12 nM | > 10000 nM
CC(C)C(NS(=O)(=O)CC[C@@H]1O[C@@H]1[C@H](Cc1ccccc1)NC(=O)[C@@H](NC(=O)OCc1ccccc1)C(C)(C)S(C)(=O)=O)C(C)C [Ex. 9, N-(2,4-dimethyl-3-pentyl)-5S-[N-(2-benzyloxycarbonyl)-β-methanesulfonyl-L-valinyl]amino-(4R,3S)-epoxy-6-phenylhexanesulfonamide] | 1.67e+07 to 1.67e+08 M⁻¹ s⁻¹ | 10 nM | > 10000 nM
CCN(C(C)C)S(=O)(=O)CC[C@@H]1O[C@@H]1[C@H](Cc1ccccc1)NC(=O)[C@@H](NC(=O)c1ccc2ccccc2n1)C(C)(C)S(C)(=O)=O [Ex. 8, N-ethyl-N-isopropyl-5S-[N-(2-quinolinecarbonyl)-β-methanesulfonyl-L-valinyl]amino-(4R,3S)-epoxy-6-phenylhexanesulfonamide] | 1.67e+07 to 1.67e+08 M⁻¹ s⁻¹ | 10 nM | > 10000 nM
CC(C)(C)NS(=O)(=O)CC[C@@H]1O[C@@H]1[C@H](Cc1ccccc1)NC(=O)[C@@H](NC(=O)OCc1ccccc1)C(C)(C)S(C)(=O)=O [Ex. 1, N-t-butyl-5S-[N-benzyloxycarbonyl-β-methanesulfonyl-L-valinyl]amino-(4R,3S)-epoxy-6-phenylhexanesulfonamide] | 1.67e+07 to 1.67e+08 M⁻¹ s⁻¹ | 25 nM | > 10000 nM
CCN(c1ccccc1)S(=O)(=O)CC[C@@H]1O[C@@H]1[C@H](Cc1ccccc1)NC(=O)[C@@H](NC(=O)c1ccc2ccccc2n1)C(C)(C)S(C)(=O)=O [Ex. 6, N-ethyl-N-phenyl-5S-[N-(2-quinolinecarbonyl)-β-methanesulfonyl-L-valinyl]amino-(4R,3S)-epoxy-6-phenylhexanesulfonamide] | 1.67e+07 to 1.67e+08 M⁻¹ s⁻¹ | 5 nM | > 10000 nM
CN(C(C)(C)C)S(=O)(=O)CC[C@@H]1O[C@@H]1[C@H](Cc1ccccc1)NC(=O)[C@@H](NC(=O)OCc1ccccc1)C(C)(C)S(C)(=O)=O [Ex. 4, N-t-butyl-N-methyl-5S-[N-benzyloxycarbonyl-β-methanesulfonyl-L-valinyl]amino-(4R,3S)-epoxy-6-phenylhexanesulfonamide] | 1.67e+07 to 1.67e+08 M⁻¹ s⁻¹ | 1 nM | > 10000 nM
